Test results published in patent US7829587B2, “Substituted 2-aminotetralin derivatives as selective alpha 2B agonist” (Allergan, Inc., priority 2008, dated 2010).

Columns and labels:
Type in all cases: cell-based
mouse α2B receptor = molecular target: T1, mouse α2B receptor (Mus musculus, UniProt P30545); test: FLIPR Ca+2 influx assay, α2B; settings: for EC50: HEK 293 cells stably expressing mouse α2B receptor and Gα16 protein; for Relative efficacy FLIPR α2B: relative efficacy compared to standard full agonist norepinephrine, HEK 293, mouse α2B/Gα16
T1 construct: expressed in transfected cells; host or cells: HEK 293
T1 sequence (P30545 1-453): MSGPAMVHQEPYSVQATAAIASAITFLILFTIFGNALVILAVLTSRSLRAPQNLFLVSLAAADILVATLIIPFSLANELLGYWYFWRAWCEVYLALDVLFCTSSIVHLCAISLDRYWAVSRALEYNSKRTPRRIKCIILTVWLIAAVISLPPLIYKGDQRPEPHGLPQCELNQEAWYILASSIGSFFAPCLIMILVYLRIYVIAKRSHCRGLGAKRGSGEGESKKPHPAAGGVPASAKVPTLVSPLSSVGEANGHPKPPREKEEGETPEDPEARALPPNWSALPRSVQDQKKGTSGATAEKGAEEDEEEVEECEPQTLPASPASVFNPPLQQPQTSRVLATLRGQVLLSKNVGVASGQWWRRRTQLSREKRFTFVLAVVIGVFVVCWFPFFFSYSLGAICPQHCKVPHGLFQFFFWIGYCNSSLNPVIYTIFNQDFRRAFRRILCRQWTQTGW
Method: (§1) The compounds disclosed herein are agonists of alpha 2B/2C adrenergic receptors. […] This assay is adequate for monitoring the intracellular Ca^2+ mobilization from fluorescent reading to evaluate receptor agonists.
(§2) FLIPR Ca+2 Influx Assay: HEK 293 cells stably expressing the bovine α1A receptor, the rat α1B receptor, the human α2A receptor and the chimeric G protein Gqi5, the human α2C receptor and the chimeric G protein Gqi5 and the mouse α2B receptor and the Gα16 protein were plated in poly-D-lysine coated 384 well plates at 15,000-25,000 cells per well and grown overnight in DMEM supplemented with 10% fetal bovine serum. For FLIPR (fluorometric image plate reader) evaluation, cells were washed 2-4 times with HBSS/HEPES Buffer (1× Hanks Buffered Salt Solution, 20 mM HEPES<pH 7.4) prior to the addition of Fluo-4-AM (4 uM Fluo-4-AM, 0.04% pluronic acid in HBSS/HEPES Buffer), a calcium-sensitive dye. Cells were loaded with Dye for 40 minutes at 30° C., then washed 4-8 times with HBSS/HEPES Buffer to remove excess dye. Cells were preincubated at 37° C. for 3 minutes prior to placement into the FLIPR instrument. The reaction was carried out at 37° C. and was initiated by the addition of the appropriate dilutions of compounds. The transient calcium was captured and the peak height of the calcium curve determined and utilized for calculation of EC50 and efficacy using ActivityBase. Data is stored in the ActivityBase database under the unique identifier “Test Occasion”, which reflects the results of an assay run on a particular date and the individual responsible for the assay. Norepinephrine was the standard full agonist for evaluating alpha1 and alpha2 receptor activity.

human α2C receptor = molecular target: T2, human α2C receptor (Homo sapiens, UniProt P18825); test: FLIPR Ca+2 influx assay, α2C; settings: for EC50: HEK 293 cells stably expressing human α2C receptor and chimeric G protein Gqi5; for Relative efficacy FLIPR α2C: relative efficacy compared to standard full agonist norepinephrine, HEK 293, human α2C/Gqi5
T2 construct: expressed in transfected cells; host or cells: HEK 293
T2 sequence (P18825 1-462): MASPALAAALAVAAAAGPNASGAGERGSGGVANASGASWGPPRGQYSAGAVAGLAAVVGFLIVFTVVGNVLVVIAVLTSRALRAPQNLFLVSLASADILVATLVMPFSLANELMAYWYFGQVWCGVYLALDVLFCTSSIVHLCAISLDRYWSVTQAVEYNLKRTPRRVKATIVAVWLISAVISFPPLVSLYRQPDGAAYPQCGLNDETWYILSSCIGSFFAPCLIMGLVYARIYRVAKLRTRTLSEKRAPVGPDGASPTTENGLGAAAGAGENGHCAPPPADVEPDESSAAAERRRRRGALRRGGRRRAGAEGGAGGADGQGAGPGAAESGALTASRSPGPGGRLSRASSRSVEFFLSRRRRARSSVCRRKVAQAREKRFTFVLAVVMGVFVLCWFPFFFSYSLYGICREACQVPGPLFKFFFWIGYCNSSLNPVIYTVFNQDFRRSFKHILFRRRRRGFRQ
Method: as §1, §2

rat α1B receptor = molecular target: T3, rat α1B receptor (Rattus norvegicus, UniProt P15823); test: FLIPR Ca+2 influx assay, α1B; settings: for EC50: HEK 293 cells stably expressing rat α1B receptor; for Relative efficacy FLIPR α1B: relative efficacy compared to standard full agonist norepinephrine, HEK 293, rat α1B
T3 construct: expressed in transfected cells; host or cells: HEK 293
T3 sequence (P15823 1-515): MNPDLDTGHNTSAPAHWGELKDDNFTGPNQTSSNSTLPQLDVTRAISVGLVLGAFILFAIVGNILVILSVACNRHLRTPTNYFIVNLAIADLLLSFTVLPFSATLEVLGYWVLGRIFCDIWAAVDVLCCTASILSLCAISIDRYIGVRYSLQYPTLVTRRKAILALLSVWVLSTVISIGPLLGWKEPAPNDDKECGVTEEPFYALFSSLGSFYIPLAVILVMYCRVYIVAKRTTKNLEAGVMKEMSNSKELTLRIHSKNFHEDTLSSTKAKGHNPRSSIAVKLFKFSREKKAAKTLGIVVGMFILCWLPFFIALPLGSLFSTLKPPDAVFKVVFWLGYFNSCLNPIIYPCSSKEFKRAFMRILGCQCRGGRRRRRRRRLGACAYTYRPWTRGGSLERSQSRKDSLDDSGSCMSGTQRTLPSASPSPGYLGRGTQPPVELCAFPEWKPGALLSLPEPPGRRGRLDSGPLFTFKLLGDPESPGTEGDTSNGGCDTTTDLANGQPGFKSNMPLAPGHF
Method: as §1, §2

human α2A receptor = molecular target: T4, human α2A receptor (Homo sapiens, UniProt P08913); test: FLIPR Ca+2 influx assay, α2A; settings: for EC50: HEK 293 cells stably expressing human α2A receptor and chimeric G protein Gqi5; for Relative efficacy FLIPR α2A: relative efficacy compared to standard full agonist norepinephrine, HEK 293, human α2A/Gqi5
T4 construct: expressed in transfected cells; host or cells: HEK 293
T4 sequence (P08913 1-465): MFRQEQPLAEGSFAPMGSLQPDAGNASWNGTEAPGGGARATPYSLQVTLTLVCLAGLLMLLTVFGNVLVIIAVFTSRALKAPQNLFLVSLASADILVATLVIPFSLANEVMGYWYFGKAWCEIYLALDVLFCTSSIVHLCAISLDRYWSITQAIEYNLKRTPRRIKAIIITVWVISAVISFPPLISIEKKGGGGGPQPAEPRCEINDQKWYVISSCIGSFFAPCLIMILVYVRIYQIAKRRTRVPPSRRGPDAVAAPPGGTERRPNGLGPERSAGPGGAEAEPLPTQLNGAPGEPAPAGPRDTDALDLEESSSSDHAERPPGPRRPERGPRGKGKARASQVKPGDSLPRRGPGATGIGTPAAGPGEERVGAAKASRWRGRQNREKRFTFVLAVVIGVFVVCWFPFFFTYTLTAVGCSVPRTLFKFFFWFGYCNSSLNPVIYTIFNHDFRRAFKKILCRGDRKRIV
Method: as §1, §2

bovine α1A receptor = molecular target: T5, bovine α1A receptor (Bos taurus, UniProt P18130); test: FLIPR Ca+2 influx assay, α1A; settings: for EC50: HEK 293 cells stably expressing bovine α1A receptor; for Relative efficacy FLIPR α1A: relative efficacy compared to standard full agonist norepinephrine, HEK 293, bovine α1A
T5 construct: expressed in transfected cells; host or cells: HEK 293
T5 sequence (P18130 1-466): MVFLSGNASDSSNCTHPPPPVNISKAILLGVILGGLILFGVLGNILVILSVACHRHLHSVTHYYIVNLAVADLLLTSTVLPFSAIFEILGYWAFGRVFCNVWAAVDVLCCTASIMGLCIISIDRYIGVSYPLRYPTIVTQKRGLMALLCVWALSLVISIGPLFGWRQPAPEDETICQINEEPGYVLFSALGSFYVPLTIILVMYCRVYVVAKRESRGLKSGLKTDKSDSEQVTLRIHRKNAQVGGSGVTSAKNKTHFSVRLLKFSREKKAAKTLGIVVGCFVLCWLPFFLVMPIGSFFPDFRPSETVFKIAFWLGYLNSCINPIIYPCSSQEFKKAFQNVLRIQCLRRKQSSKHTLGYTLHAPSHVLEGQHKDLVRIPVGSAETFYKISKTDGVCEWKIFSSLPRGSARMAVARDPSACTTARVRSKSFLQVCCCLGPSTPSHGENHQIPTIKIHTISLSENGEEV
Method: as §1, §2

SMILES | EC50 (mouse α2B receptor) [µM] | Relative efficacy FLIPR α2B (mouse α2B receptor) | EC50 (human α2C receptor) [µM] | Relative efficacy FLIPR α2C (human α2C receptor) | EC50 (rat α1B receptor) [µM] | Relative efficacy FLIPR α1B (rat α1B receptor) | EC50 (human α2A receptor) [µM] | Relative efficacy FLIPR α2A (human α2A receptor) | EC50 (bovine α1A receptor) [µM] | Relative efficacy FLIPR α1A (bovine α1A receptor)
CCCN(Cc1ccccn1)C1CCc2cccc(OC)c2C1 (stereo not drawn) | 0.363 | 0.63 | > 10 | 0 | > 10 | 0 | > 10 | 0 | > 10 | 0
CCCN(Cc1ccncc1)C1CCc2cccc(O)c2C1 (stereo not drawn) | 0.058 | 1.06 |  | ND (0.12) | > 10 | 0 | > 10 | 0 | > 10 | 0
CCN(Cc1cccnc1)C1CCc2cccc(O)c2C1 (stereo not drawn) | 0.873 | 0.89 |  | ND (0.43) |  | ND (0.36) | 4.5 | 0.35 | 4 | 0.29
CCN(Cc1ccncc1)C1CCc2cccc(O)c2C1 (stereo not drawn) | 0.185 | 1.08 | 6.7 | 0.17 |  | ND (0.15) | 5.5 | 0.16 |  | ND (0.1)
CCCN(Cc1ccncc1)C1CCc2cccc(OC)c2C1 (stereo not drawn) | 0.036 | 1.0 | 2.15 | 0.69 | > 10 | 0 | 1.85 | 0.22 | > 10 | 0
